Measurements published in patent US9944607B2, “Thiohydantoin derivatives and uses thereof” (Whitehead Institute for Biomedical Research, priority 2012, dated 2018).
Converted amounts (≈) assume the structure as drawn. Read-outs that look alike come from different tables or passages of the source. One block for each compound: values may come before it.

What was measured:
Candida albicans CaCi-2 = assay: Primary assay: C. albicans CaCi-2 growth inhibition (Alamar Blue); type: cell-based; details: for Drop in activity / potency relative to hit CID3889161: C. albicans growth inhibition; for Activity against C. albicans: CaCi-2, or both test strains (CaCi-2, CaCi-17) where the sentence names none; for Growth Inhibition Activity, IC50 (μM), C. albicans (n = 3) CaCi-2 / IC50: 48 hours, tested up to 26 μM, n = 3; for IC50: read-out: Growth Inhibition Activity, IC50 (μM), C. albicans (n = 3) CaCi-2
Candida albicans CaCi-17 = assay: Primary assay: C. albicans CaCi-17 growth inhibition (Alamar Blue); type: cell-based; details: for Growth Inhibition Activity, IC50 (μM), C. albicans (n = 3) CaCi-17 / IC50: 48 hours, tested up to 26 μM, n = 3; for IC50: read-out: Growth Inhibition Activity, IC50 (μM), C. albicans (n = 3) CaCi-17
[1] = tested on: NIH-3T3 mammalian fibroblasts; assay: Counterscreen mammalian cell toxicity assay (Alamar Blue); type: cell-based, murine; details: n = 1, 48 hours, tested up to 26 μM; for IC50: read-out: Growth Inhibition Activity, IC50 (μM), 3T3 Fibroblasts (n = 1)
Description: Quiescent murine fibroblasts were subjected to incubation with compounds of interest for 48 hours. Subsequent cell viability was determined via measuring Alamar Blue fluorescence.
Procedures • After overnight culture, pin compounds into wells at 100 nL/well using the CyBio CyBi-Well pinning instrument. • Return the plates to the tissue culture incubator and incubate the culture for an additional 48 hours at 37° C. under 5% CO2. • At the completion of this incubation, add Alamar Blue solution diluted 1:40 in PBS to each well (10 μL/well) to achieve a final dilution of 1:200. • Incubate the plates for an additional 2-3 hours at 37° C. under 5% CO2. • Read the Relative Fluorescence Intensity (RFU) of wells on a standard plate reader as a measure of relative cell growth. […] 4.4.

[2] = Solubility in PBS pH 7.4 with 1% DMSO; details: for solubility at 24 h: phosphate buffered saline with 1% DMSO, pH 7.4, aqueous buffer, kinetic from dmso stock
Description: Solubility was determined in phosphate buffered saline (PBS) pH 7.4 with 1% DMSO. Each compound was prepared in duplicate at 100 μM in both 100% DMSO and PBS with 1% DMSO. Compounds were allowed to equilibrate at room temperature with a 250 rpm orbital shake for 24 hours. After equilibration, samples were analyzed by UPLC-MS (Waters, Milford, Mass.) with compounds detected by SIR detection on a single quadrupole mass spectrometer. The DMSO samples were used to create a two-point calibration curve to which the response in PBS was fit.

[3] = Table 4, PBS pH 7.4 with 1% DMSO, 24 hours, room temperature

SMILES: CCOC(=O)N1C(=O)C2(CCOCC2)N(c2ccc(C)cc2)C1=S [CID 56604818]
- Drop in activity / potency relative to hit CID3889161 (Candida albicans CaCi-2): 100 fold

SMILES: CCOC(=O)N1C(=S)N(c2ccc(C)cc2)C(=O)C12CCCCC2 [CID 56604852]
- Activity against C. albicans (Candida albicans CaCi-2): inactive

SMILES: Cc1ccc(N2C(=S)N(C(=O)Oc3ccccc3)C(=O)C23CCCCC3)cc1 [CID 56604875]
- Activity against C. albicans (Candida albicans CaCi-2): no activity
- Activity against C. albicans CaCi-17 as worded in the text (Candida albicans CaCi-17): no activity

SMILES: CCOC(=O)N1C(=O)C2(CCCCC2)N(Cc2ccccc2)C1=S [CID 56604878]
- Drop in activity / potency relative to hit CID3889161 (Candida albicans CaCi-2): 10 fold

SMILES: Cc1ccc(N2C(=S)NC(=O)C23CCCCC3)cc1 [CID 56604892]
- Activity against C. albicans (Candida albicans CaCi-2): failed to inhibit C. albicans growth

- Growth Inhibition Activity, IC50 (μM), C. albicans (n = 3) CaCi-2 (Candida albicans CaCi-2; Table 7): inactive
- Growth Inhibition Activity, IC50 (μM), C. albicans (n = 3) CaCi-17 (Candida albicans CaCi-17; Table 7): inactive
- solubility at 24 h [2]: > 100 µM
SMILES: Cc1ccc(N2CC(=O)NC2=O)cc1 [compound 759335]
- Growth Inhibition Activity, IC50 (μM), 3T3 Fibroblasts (n = 1) ([1]; Table 7): Inactive

- Growth Inhibition Activity, IC50 (μM), C. albicans (n = 3) CaCi-2 (Candida albicans CaCi-2; Table 7): inactive
- Growth Inhibition Activity, IC50 (μM), C. albicans (n = 3) CaCi-17 (Candida albicans CaCi-17; Table 7): inactive
- solubility at 24 h [2]: 79 µM (≈ 20.6 µg/mL)
SMILES: O=C1NC(=S)N(c2ccccc2)C12CCCCC2 [compound 823120]
- Growth Inhibition Activity, IC50 (μM), 3T3 Fibroblasts (n = 1) ([1]; Table 7): Inactive

SMILES: COC(=O)N1C(=O)C2(CCCCC2)N(c2ccc(C)cc2)C1=S [compound 3951437]
- IC50 (Candida albicans CaCi-2; Table 3): 1.9 µM
- IC50 (Candida albicans CaCi-17; Table 3): 17.1 µM
- Growth Inhibition Activity, IC50 (μM), 3T3 Fibroblasts (n = 1) ([1]; Table 3): Inactive

- Growth Inhibition Activity, IC50 (μM), C. albicans (n = 3) CaCi-2 (Candida albicans CaCi-2; Table 7): inactive
- Growth Inhibition Activity, IC50 (μM), C. albicans (n = 3) CaCi-17 (Candida albicans CaCi-17; Table 7): inactive
- solubility at 24 h [2]: > 100 µM
SMILES: O=C1NC(=S)N(Cc2ccccc2)C12CCCCC2 [compound 14297244]
- Growth Inhibition Activity, IC50 (μM), 3T3 Fibroblasts (n = 1) ([1]; Table 7): Inactive

SMILES: CCOC(=O)N1C(=O)C2(CCCCC2)N(c2ccccc2C)C1=S [compound 24052146]
- IC50 (Candida albicans CaCi-2; Table 4): 1.2 µM
- IC50 (Candida albicans CaCi-17; Table 4): 23.9 µM
- Growth Inhibition Activity, IC50 (μM), 3T3 Fibroblasts (n = 1) ([1]; Table 4): Inactive
- PBS Solubility [2, 3]: 18 µM

- Growth Inhibition Activity, IC50 (μM), C. albicans (n = 3) CaCi-2 (Candida albicans CaCi-2; Table 7): inactive
- Growth Inhibition Activity, IC50 (μM), C. albicans (n = 3) CaCi-17 (Candida albicans CaCi-17; Table 7): inactive
- solubility at 24 h [2]: 62 µM (≈ 15.3 µg/mL)
SMILES: Cc1ccc(N2C(=S)NC(=O)C23CCC3)cc1 [compound 56604811]
- Growth Inhibition Activity, IC50 (μM), 3T3 Fibroblasts (n = 1) ([1]; Table 7): Inactive

- IC50 (Candida albicans CaCi-2; Table 4): 0.8 µM
- IC50 (Candida albicans CaCi-17; Table 4): 16.2 µM
- PBS Solubility ([2]; pH 7.4): <1.0 µM
SMILES: CCOC(=O)N1C(=O)C2(CCCCC2)N(c2ccc(C(F)(F)F)cc2)C1=S [compound 56604813]
- IC50 ([1]; Table 4): 12.5 µM

- Growth Inhibition Activity, IC50 (μM), C. albicans (n = 3) CaCi-2 (Candida albicans CaCi-2; Table 3): inactive
- Growth Inhibition Activity, IC50 (μM), C. albicans (n = 3) CaCi-17 (Candida albicans CaCi-17; Table 3): inactive
- PBS Solubility ([2]; pH 7.4): <1.0 µM
SMILES: CCCCN1C(=O)C2(CCCCC2)N(c2ccc(C)cc2)C1=S [compound 56604814]
- IC50 ([1]; Table 3): 24.2 µM

SMILES: CCOC(=O)N1C(=O)C2(CCCCC2)N(c2ccc(C(C)C)cc2)C1=S [compound 56604817]
- Growth Inhibition Activity, IC50 (μM), C. albicans (n = 3) CaCi-2 (Candida albicans CaCi-2; Table 4): inactive
- Growth Inhibition Activity, IC50 (μM), C. albicans (n = 3) CaCi-17 (Candida albicans CaCi-17; Table 4): inactive
- IC50 ([1]; Table 4): 13.8 µM
- PBS Solubility [2, 3]: <1.0 µM

- IC50 (Candida albicans CaCi-2; Table 5): 20.6 µM
- Growth Inhibition Activity, IC50 (μM), C. albicans (n = 3) CaCi-17 (Candida albicans CaCi-17; Table 5): inactive
- PBS Solubility ([2]; pH 7.4): 28.5 µM
SMILES: CCOC(=O)N1C(=O)C2(CCOCC2)N(c2ccc(C)cc2)C1=S [compound 56604818]
- Growth Inhibition Activity, IC50 (μM), 3T3 Fibroblasts (n = 1) ([1]; Table 5): Inactive
